Test results published in patent publication US20190000976A1, “Purgative Composition” (CTC BIO, INC., priority 2016, published 2019).

How the values were obtained:
[1] = Stability of sodium picosulfate in solution alone, with polyethylene glycol 4000 or with sorbitol (content by HPLC, British Pharmacopoeia); assay type: physicochemical
Method: The solution was stored at room temperature, in accelerated condition (40° C., 75%RH), and stress condition (60° C., 75%RH).

[2] = Stability of sodium picosulfate in polyethylene glycol 3350 / sorbitol solution with sodium hydrogencarbonate or sodium citrate, 3 weeks (content by HPLC); assay type: physicochemical; conditions: by comprising sodium hydrogencarbonate or sodium citrate
Method: The solution was stored at room temperature or stress condition (60° C., 75%RH) for 3 weeks. The content of sodium picosulfate was evaluated. The content of sodium picosulfate was determined by ‘Sodium picosulfate powder for oral solution’ test method of British Pharmacopoeia using high performance liquid chromatography.

Content (%) of sodium picosulfate, After 1 week Accelerated condition ([1]; 1 week, accelerated condition (40° C., 75%RH)): 102.2%
Content (%) of sodium picosulfate, After 1 week Room temp. ([1]; 1 week, room temperature): 102.2%
Content (%) of sodium picosulfate, After 1 week Stress condition ([1]; 1 week, stress condition (60° C., 75%RH)): 102.4%
Content (%) of sodium picosulfate, After 2 weeks Room temp. ([1]; 2 weeks, room temperature): 102.4%
Content (%) of sodium picosulfate, After 2 weeks Stress condition ([1]; 2 weeks, stress condition (60° C., 75%RH)): 102.5%
Content (%) of sodium picosulfate, Initial ([1]; Initial, 300 ml solution): 102.4%
Stability of sodium picosulfate (in words) ([1]; when mixed with polyethylene glycol): very unstable
Instability of sodium picosulfate caused by mixing with polyethylene glycol (in words) [2]: improved dramatically
Structure (SMILES): O=S(=O)(O)Oc1ccc(C(c2ccc(OS(=O)(=O)O)cc2)c2ccccn2)cc1 [sodium picosulfate]
